Data: patent US20050129610A1, “Imaging agents and methods of imaging alpha7-nicotinic cholinergic receptor” (Johns Hopkins University, priority 2003, published 2005)
Like-named read-outs stand apart in the source and are kept apart here.

Legend:
[1] = molecular target: rat α7 nAChR (Rattus norvegicus, UniProt Q05941); assay: Receptor binding assay, rat α7 nAChR
Procedure: (§1) Receptor Binding Assays. The affinities of 1-4 for the rat α4β2 and α7 nAChRs were determined as described previously (Mullen, et al., J. Med. Chem.; 2000;43(22):4045-50). Affinities for the rat 5-HT3 receptor were also determined as described previously (Macor, et al., Bioorg. Med. Chem. Lett. 2001;11(3):319-21). All Ki determinations were done using 5-7 concentrations. […] There was a wide margin in selectivity compared to the α4β2 receptor subtype. Also included are the relative binding affinities to the 5-HT3 receptor, which has high sequence homology to the α7-nAChR.

[2] = Rodent in vivo biodistribution (brain kinetics); design: species or system male CD-1 mice; settings: for Brain distribution, CB: cerebellum; for Brain distribution, CB / Brain distribution, CTX / Brain distribution, HIPP / Brain distribution, HYPO / Brain distribution, STR / Brain distribution, THAL / Brain distribution, F. CTX / Brain distribution, S. COLL: mice; for Brain distribution, CTX: cortex; for Brain distribution, HIPP: hippocampus; for Brain distribution, HYPO: hypothalamus; for Regional selectivity of brain uptake: all time points, in words; for Uptake within the brain (in words): i.v. radiotracer; for Brain distribution, STR: striatum; for Brain distribution, THAL: thalamus; for Uptake/retention in target tissue (hippocampus): mouse hippocampus vs other brain substructures, FIG. 1 / FIG. 3
Procedure: (§2) Rodent In Vivo Biodistribution Studies of 1-4. Male CD-1 mice weighing between 20 and 25 g received an injection of 3.7 MBq (100 μCi) for 1 and 2 and 0.67 MBq ([…]) for 3 and 4 through the tail vein. The corresponding amounts administered were 0.2-0.8 μg/kg for 1 and 2 and 0.01-0.02 μg/kg for 3 and 4. For kinetic studies of 1-4, the mice were killed by cervical dislocation at 5, 15, 30 and 60 min after intravenous injection of radiotracer in 200 μL saline vehicle. The brains were removed and placed on ice, and the cerebellum, olfactory bulb, hypothalamus, hippocampus, striatum, cortex, brain stem and thalamus were harvested. A 45 min time point was obtained for 2 and one at 120 min for 3 and 4. The tissue samples were weighed and their radioactivity determined in an automated □ counter (1282 Compugamma CS; Pharmacia/LKB Nuclear Inc., Gaithersburg, Md.). The radioactivity concentration in aliquots of the injected tracer were determined along with the samples and served as standards for the calculation of percentage injected dose per gram of tissue (% ID/g). To assess binding specificity, subgroups of mice were treated with 10 mg/kg nicotine (for D or increasing doses of unlabeled 4 (0.01-10 mg/kg) 5 min prior to injection of radiotracer. Mice were killed at 30 and 60 min after blockade for 3 and 4, respectively.

[3] = molecular target: T1, rat 5-HT3 receptor (Rattus norvegicus, UniProt P35563); assay: Receptor binding assay, rat 5-HT3 receptor (selectivity); settings: binding selectivity vs rat 5-HT3 receptor
T1 sequence (P35563 24-483): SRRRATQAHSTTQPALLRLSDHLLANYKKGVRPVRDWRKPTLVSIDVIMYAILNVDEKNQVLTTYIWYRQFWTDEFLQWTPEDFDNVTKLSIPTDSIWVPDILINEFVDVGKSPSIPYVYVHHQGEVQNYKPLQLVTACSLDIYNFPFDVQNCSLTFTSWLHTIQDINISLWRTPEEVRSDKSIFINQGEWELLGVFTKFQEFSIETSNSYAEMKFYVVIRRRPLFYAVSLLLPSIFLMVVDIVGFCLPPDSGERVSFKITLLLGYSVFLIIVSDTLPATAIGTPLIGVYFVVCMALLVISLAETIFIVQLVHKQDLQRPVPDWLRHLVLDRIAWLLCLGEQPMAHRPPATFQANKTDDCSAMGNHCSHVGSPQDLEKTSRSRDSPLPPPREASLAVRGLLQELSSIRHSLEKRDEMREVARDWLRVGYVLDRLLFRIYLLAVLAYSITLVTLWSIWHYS
Procedure: as §1

[4] = molecular target: rat α4β2 nAChR (Rattus norvegicus, UniProt P09483+P12390); assay: Receptor binding assay, rat α4β2 nAChR (selectivity); settings: binding selectivity vs rat α4β2 nAChR
Sequence of rat α4β2 nAChR (P09483 31-630): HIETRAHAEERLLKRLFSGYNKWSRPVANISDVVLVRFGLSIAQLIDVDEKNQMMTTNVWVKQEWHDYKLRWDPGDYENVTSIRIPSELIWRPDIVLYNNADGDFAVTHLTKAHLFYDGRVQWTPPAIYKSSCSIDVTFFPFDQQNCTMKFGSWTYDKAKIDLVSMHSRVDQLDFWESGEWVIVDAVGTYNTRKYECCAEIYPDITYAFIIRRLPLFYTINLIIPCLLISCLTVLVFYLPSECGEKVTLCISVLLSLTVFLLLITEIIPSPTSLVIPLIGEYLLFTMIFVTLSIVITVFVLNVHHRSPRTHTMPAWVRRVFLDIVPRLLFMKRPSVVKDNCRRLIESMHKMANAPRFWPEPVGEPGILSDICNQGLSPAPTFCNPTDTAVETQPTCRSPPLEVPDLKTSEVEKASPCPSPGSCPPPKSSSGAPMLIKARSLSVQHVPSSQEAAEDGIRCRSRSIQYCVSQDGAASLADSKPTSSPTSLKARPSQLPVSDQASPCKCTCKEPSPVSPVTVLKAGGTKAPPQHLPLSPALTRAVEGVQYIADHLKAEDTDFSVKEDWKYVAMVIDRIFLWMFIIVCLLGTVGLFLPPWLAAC
Sequence of rat α4β2 nAChR (P12390 25-500): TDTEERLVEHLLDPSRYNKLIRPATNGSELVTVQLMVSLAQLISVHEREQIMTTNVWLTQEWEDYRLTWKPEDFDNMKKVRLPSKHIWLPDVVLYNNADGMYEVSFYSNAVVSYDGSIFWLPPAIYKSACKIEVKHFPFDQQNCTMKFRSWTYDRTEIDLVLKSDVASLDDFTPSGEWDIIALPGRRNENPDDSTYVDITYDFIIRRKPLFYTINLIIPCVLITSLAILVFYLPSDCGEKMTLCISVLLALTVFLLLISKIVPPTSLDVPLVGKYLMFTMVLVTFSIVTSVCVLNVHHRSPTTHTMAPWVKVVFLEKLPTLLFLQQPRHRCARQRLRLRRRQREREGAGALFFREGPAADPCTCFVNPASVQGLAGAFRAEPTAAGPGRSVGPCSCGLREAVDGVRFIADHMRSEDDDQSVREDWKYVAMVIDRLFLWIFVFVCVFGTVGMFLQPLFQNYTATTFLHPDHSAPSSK
Procedure: as §1

[5] = molecular target: T2, α7-nAChR (Mus musculus, UniProt P49582); assay: In vivo binding specificity (receptor blockade) study; design: species or system male CD-1 mice
T2 construct: Male CD-1 mice weighing between 20 and 25 g received an injection; from tissue; host or cells: brain of living male CD-1 mice (hippocampus, cortex and other regions)
T2 sequence (P49582 23-502): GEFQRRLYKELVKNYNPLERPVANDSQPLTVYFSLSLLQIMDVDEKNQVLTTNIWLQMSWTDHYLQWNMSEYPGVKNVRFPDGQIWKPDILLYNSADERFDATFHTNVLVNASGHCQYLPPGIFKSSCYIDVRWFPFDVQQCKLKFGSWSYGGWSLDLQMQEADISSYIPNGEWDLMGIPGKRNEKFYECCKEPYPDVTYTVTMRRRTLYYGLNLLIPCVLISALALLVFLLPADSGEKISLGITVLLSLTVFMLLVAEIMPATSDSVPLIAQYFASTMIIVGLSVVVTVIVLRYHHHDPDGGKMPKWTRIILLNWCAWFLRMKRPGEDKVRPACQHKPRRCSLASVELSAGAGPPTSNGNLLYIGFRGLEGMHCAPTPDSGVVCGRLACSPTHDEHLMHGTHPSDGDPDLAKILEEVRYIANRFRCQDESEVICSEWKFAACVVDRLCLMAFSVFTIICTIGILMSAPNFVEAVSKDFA
Procedure: as §2

[6] = rat α7 nAChR, nonradioactive analogs, 5-7 concentrations, read-out: Ki
[7] = 30 min, low specific activity (LSA)
[8] = 60 min, low specific activity (LSA)

Sequence of rat α7 nAChR (Q05941 23-502): as the sequence (P49582 23-502) above, with T402A counted along it

Structure (SMILES): [11CH3]Sc1ccc(C(=O)NC2CN3CCC2CC3)cc1 [Compound 2, N—(R)-1-aza-bicyclo[2.2.2]oct-3-yl-4-[^11C]methylsulfanyl-benzamide]
- Ki [1]: 5.8 nM
- Brain distribution, CB ([2]; 5 min post i.v. injection): 0.23 ± 0.01 % ID/g
- Brain distribution, CB ([2]; 15 min post i.v. injection): 0.26 ± 0.04 % ID/g
- Brain distribution, CB ([2]; 30 min post i.v. injection): 0.14 ± 0.03 % ID/g
- Brain distribution, CB ([2]; 45 min post i.v. injection): 0.09 ± 0.01 % ID/g
- Brain distribution, CB ([2]; 60 min post i.v. injection): 0.08 ± 0.01 % ID/g
- Brain distribution, CTX ([2]; 5 min post i.v. injection): 0.16 ± 0.04 % ID/g
- Brain distribution, CTX ([2]; 15 min post i.v. injection): 0.17 ± 0.03 % ID/g
- Brain distribution, CTX ([2]; 30 min post i.v. injection): 0.14 ± 0.05 % ID/g
- Brain distribution, CTX ([2]; 45 min post i.v. injection): 0.10 ± 0.02 % ID/g
- Brain distribution, CTX ([2]; 60 min post i.v. injection): 0.10 ± 0.02 % ID/g
- Brain distribution, HIPP ([2]; 5 min post i.v. injection): 0.15 ± 0.01 % ID/g
- Brain distribution, HIPP ([2]; 15 min post i.v. injection): 0.24 ± 0.04 % ID/g
- Brain distribution, HIPP ([2]; 30 min post i.v. injection): 0.14 ± 0.03 % ID/g
- Brain distribution, HIPP ([2]; 45 min post i.v. injection): 0.13 ± 0.02 % ID/g
- Brain distribution, HIPP ([2]; 60 min post i.v. injection): 0.12 ± 0.02 % ID/g
- Brain distribution, HYPO ([2]; 5 min post i.v. injection): 0.30 ± 0.02 % ID/g
- Brain distribution, HYPO ([2]; 15 min post i.v. injection): 0.55 ± 0.05 % ID/g
- Brain distribution, HYPO ([2]; 30 min post i.v. injection): 0.22 ± 0.04 % ID/g
- Brain distribution, HYPO ([2]; 45 min post i.v. injection): 0.22 ± 0.09 % ID/g
- Brain distribution, HYPO ([2]; 60 min post i.v. injection): 0.27 ± 0.05 % ID/g
- Regional selectivity of brain uptake ([2]; mouse brain): no regional selectivity
- Uptake within the brain (in words) ([2]; mouse brain): limited uptake
- Brain distribution, STR ([2]; 5 min post i.v. injection): 0.22 ± 0.06 % ID/g
- Brain distribution, STR ([2]; 15 min post i.v. injection): 0.37 ± 0.05 % ID/g
- Brain distribution, STR ([2]; 30 min post i.v. injection): 0.16 ± 0.03 % ID/g
- Brain distribution, STR ([2]; 45 min post i.v. injection): 0.15 ± 0.05 % ID/g
- Brain distribution, STR ([2]; 60 min post i.v. injection): 0.18 ± 0.05 % ID/g
- Brain distribution, THAL ([2]; 5 min post i.v. injection): 0.18 ± 0.02 % ID/g
- Brain distribution, THAL ([2]; 15 min post i.v. injection): 0.26 ± 0.09 % ID/g
- Brain distribution, THAL ([2]; 30 min post i.v. injection): 0.13 ± 0.03 % ID/g
- Brain distribution, THAL ([2]; 45 min post i.v. injection): 0.10 ± 0.01 % ID/g
- Brain distribution, THAL ([2]; 60 min post i.v. injection): 0.14 ± 0.03 % ID/g
- α7/5-HT3 [3]: 1100 (1)
- α7/α4 [4]: 14,000 (1)

Structure (SMILES): [125I]c1occc1-c1cnc2c(c1)CC1(CN3CCC1CC3)O2 (stereo not drawn) [Compound 4, (2′R)-5′-(2-[^125I]iodo-3-furanyl)spiro[1-azabicyclo[2.2.2]octane]-3,2′(3′H)-furo[2,3-b]pyridine]
- Receptor blockade study ([5]; unlabeled 4 (0.01-10 mg/kg) 5 min before radiotracer, mice killed at 60 min, FIG. 4): significant blockade in the target tissue and slightly less so in cortex
- Ki [1, 6]: 0.26 nM
- Uptake within the brain (in words) ([2]; mouse brain): gained ready access to the brain
- Uptake/retention in target tissue (hippocampus) [2]: modest but higher uptake in target tissue (hippocampus) than within other brain substructures

Structure (SMILES): O=C(NC1CN2CCC1CC2)c1ccc([125I])cc1 [Compound 3, N-(R)-1-Aza-bicyclo[2.2.2]oct-3-yl-4-[^125I]iodo-benzamide]
- Blocking study (nicotine blockade) ([5]; 10 mg/kg nicotine 5 min before radiotracer, mice killed at 30 min, FIG. 2): failed to demonstrate regionally-selective blockade, although significantly decreased radiotracer uptake was demonstrated in the regions studied
- Uptake values within the brain ([2]; mouse brain, FIG. 1): < 0.4 % ID/g
- Uptake/retention in target tissue (hippocampus) [2]: retention within hippocampus, a target tissue, was demonstrated

Structure (SMILES): O=C(NC1CN2CCC1CC2)c1ccc(Br)cc1 (centres unmarked) [3 (precursor)]
- Ki [1, 6]: 18 nM
- α7/5-HT3 [3]: 280 (1)
- α7/α4 [4]: 36000 (1)

Structure (SMILES): [11CH3]N(Cc1ccccc1)c1cnc2c(c1)CC1(CN3CCC1CC3)O2 (stereo not drawn) [Compound 1, (2′R)-N-[^11C]methyl-N-(phenylmethyl)-spiro[1-azabicyclo[2.2.2]octane-3,2′(3′H)-furo[2,3-b]pyridin]-5′-amine]
- Receptor blockade in low specific activity (LSA) studies ([5]; LSA determinations at 30 and 60 min, mice): nor was there evidence of receptor blockade
- Ki [1]: 0.54 nM
- Brain distribution, F. CTX ([2]; 5 min post i.v. injection): 1.77 ± 0.36 % ID/g
- Brain distribution, F. CTX ([2]; 15 min post i.v. injection): 1.38 ± 0.25 % ID/g
- Brain distribution, F. CTX [2, 7]: 1.28 ± 0.07 % ID/g
- Brain distribution, F. CTX ([2]; 30 min post i.v. injection): 0.95 ± 0.06 % ID/g
- Brain distribution, F. CTX [2, 8]: 1.07 ± 0.15 % ID/g
- Brain distribution, F. CTX ([2]; 60 min post i.v. injection): 0.79 ± 0.11 % ID/g
- Brain distribution, S. COLL ([2]; 5 min post i.v. injection): 1.49 ± 0.50 % ID/g
- Brain distribution, S. COLL ([2]; 15 min post i.v. injection): 1.42 ± 0.26 % ID/g
- Brain distribution, S. COLL [2, 7]: 1.04 ± 0.15 % ID/g
- Brain distribution, S. COLL ([2]; 30 min post i.v. injection): 1.09 ± 0.14 % ID/g
- Brain distribution, S. COLL [2, 8]: 0.88 ± 0.16 % ID/g
- Brain distribution, CB ([2]; 5 min post i.v. injection): 1.66 ± 0.50 % ID/g
- Brain distribution, CB ([2]; 15 min post i.v. injection): 1.38 ± 0.32 % ID/g
- Brain distribution, CB [2, 7]: 1.00 ± 0.06 % ID/g
- Brain distribution, CB ([2]; 30 min post i.v. injection): 1.16 ± 0.19 % ID/g
- Brain distribution, CB [2, 8]: 0.65 ± 0.07 % ID/g
- Brain distribution, CB ([2]; 60 min post i.v. injection): 0.84 ± 0.05 % ID/g
- Brain distribution, CTX ([2]; 5 min post i.v. injection): 1.46 ± 0.48 % ID/g
- Brain distribution, CTX ([2]; 15 min post i.v. injection): 1.28 ± 0.21 % ID/g
- Brain distribution, CTX [2, 7]: 1.16 ± 0.13 % ID/g
- Brain distribution, CTX ([2]; 30 min post i.v. injection): 0.89 ± 0.11 % ID/g
- Brain distribution, CTX [2, 8]: 0.86 ± 0.15 % ID/g
- Brain distribution, CTX ([2]; 60 min post i.v. injection): 0.69 ± 0.10 % ID/g
- Brain distribution, HIPP ([2]; 5 min post i.v. injection): 1.24 ± 0.33 % ID/g
- Brain distribution, HIPP ([2]; 15 min post i.v. injection): 1.12 ± 0.15 % ID/g
- Brain distribution, HIPP [2, 7]: 1.27 ± 0.09 % ID/g
- Brain distribution, HIPP ([2]; 30 min post i.v. injection): 0.91 ± 0.05 % ID/g
- Brain distribution, HIPP [2, 8]: 0.98 ± 0.16 % ID/g
- Brain distribution, HIPP ([2]; 60 min post i.v. injection): 0.81 ± 0.10 % ID/g
- Regional selectivity of brain uptake ([2]; mouse brain): No α7-nAChR-selective, regional brain uptake
- Uptake within the brain (in words) ([2]; mouse brain): limited but measurable uptake within the brain
- Brain distribution, STR ([2]; 5 min post i.v. injection): 1.47 ± 0.38 % ID/g
- Brain distribution, STR ([2]; 15 min post i.v. injection): 1.20 ± 0.15 % ID/g
- Brain distribution, STR [2, 7]: 1.20 ± 0.05 % ID/g
- Brain distribution, STR ([2]; 30 min post i.v. injection): 0.93 ± 0.10 % ID/g
- Brain distribution, STR [2, 8]: 0.75 ± 0.22 % ID/g
- Brain distribution, STR ([2]; 60 min post i.v. injection): 0.69 ± 0.06 % ID/g
- Brain distribution, THAL ([2]; 5 min post i.v. injection): 1.61 ± 0.61 % ID/g
- Brain distribution, THAL ([2]; 15 min post i.v. injection): 1.35 ± 0.28 % ID/g
- Brain distribution, THAL [2, 7]: 1.23 ± 0.12 % ID/g
- Brain distribution, THAL ([2]; 30 min post i.v. injection): 1.11 ± 0.06 % ID/g
- Brain distribution, THAL [2, 8]: 0.81 ± 0.06 % ID/g
- Brain distribution, THAL ([2]; 60 min post i.v. injection): 0.77 ± 0.10 % ID/g
- α7/5-HT3 [3]: 18 (1)
- α7/α4 [4]: >22,000 (1)
